Measured values from US8703727B2, “Nanotechnology formulation of poorly soluble compounds” (Aphios Corporation, priority 2010, dated 2014).
Values after ≈ are worked out from the molar mass of the structure shown. Read-outs that look alike come from different tables or passages of the source.

Experiments:
[1] = Preliminary solubility experiments in methanol; assay type: physicochemical
Procedure: Samples were weighed into 20-mL scintillation vials and 10 mL of methanol pipetted into each vial. […] An additional 10 mL of methanol was added to each of these vials. Now sample 3 dissolved completely, but particles still remained in sample 5. An additional 20 mL of methanol was added to sample 5, but on sonication, the small quantity of particles still remained.

[2] = HPLC of old standard solutions stored at room temperature; assay type: physicochemical
[3] = Solubility of S4 and S5 in methanol and ethanol (saturated solution, HPLC); assay type: physicochemical; settings: 25° C.; for solubility at 5 min: organic solvent or mixture, thermodynamic from solid
Procedure: HPLC Method • Column: Phenomenex Luna C18(2), 15-cm×4.6 mm. • Buffer Concentrate (BC): 100 mL Et3N×80 mL 85% H3PO4 to 1000 mL with water. • Mobile Phase B=250 mL ACN+10 mL of BC to 1000 mL with water. • Mobile Phase C=100% ACN • Isocratic Mixture: 60% Phase B and 40% Phase C. • Alternatively, use 55% Acetonitrile with 3-mL Buffer Concentrate/1000 mL • Flow=1.5 mL/min Temperature=30° C. Wavelength=330 nm Injection=20 μL
Procedure for Formation of a Saturated Solution • 1. Weigh in duplicate approximately 100 milligrams of each standard into 1.5 mL mini-centrifuge tubes. • 2. Add 1.00 mL of Methanol to a S4 tube and 1.00 mL of Ethanol to the other S4 tube. Add 1.00 mL of Methanol to a S5 tube and 1.00 mL of Ethanol to the other S5 tube. • 3. Shake all four tubes for 5 minutes at room temperature (25° C.). • 4. Centrifuge at 6000 rpm for 10 minutes. The supernatant should be a saturated solution. • 5. Assay the supernatants by HPLC. Use a 20/1000 dilution in methanol. The target absorbance is 0.40 AU. A reasonable absorbance range is 0.10 to 1.20. If the absorbance that is found is outside of this range, dilute appropriately to bring the absorbance close to 0.40.

[4] = Solubility of aminoflavone in DI water and 1% PVA (HPLC); assay type: physicochemical; settings: for solubility at 5 min: thermodynamic from solid
Procedure: Procedure: • 1. Weigh 5-10 mg of Aminoflavone into two 20 mL scintillation vials. • 2. Pipette 10 mL of water into Vial A and 10 mL of 1% PVA into Vial B. • 3. Shake the vials gently for about 5 minutes. Then let stand for 30 minutes. • 4. Carefully withdraw 0.9 mL from each vial for HPLC Analysis • 5. Shake the samples again and transfer to 50 mL Centrifuge tubes. • 6. Centrifuge for 20 minutes at 2500 rpm • 7. Again carefully withdraw 0.9 mL from each for HPLC Analysis.
Shaking the Aminoflavone in either water or 1% Aqueous PVA results in a dispersion of small particles that are difficult to see. They are suspended in the solution. HPLC duplication will be very poor since the “solution” is not uniform suspension of different size particles.

[5] = cited from earlier work
[6] = HPLC analysis of 0.45 micron filter filtrate of BPN-20 in 1% PVA; assay type: physicochemical
Procedure: Procedure: • 1. Write A, B, C, and D on each of four 0.45 micron 47 mm Nylon 66 filters with a soft pencil. • 2. Weigh each of the filters. • 3. Draw Methanol through Filter A and set on a paper towel to dry. • 4. Weigh about 10 mg of aminoflavone onto Filter B and get an accurate weight. • 5. Draw 100 mL of Methanol through Filter B and bring to 100 mL in a 100 mL vol flask • 6. Set Filter B aside to dry on a paper towel. • 7. Draw 20 mL of 1% PVA through Filter C and set on a paper towel to dry. • Save the Filtrate for HPLC Assay • 8. Draw 20 mL of BPN-20 yellow ppt through Filter D and set on a paper towel to dry. • Save the Filtrate for HPLC Assay • 9. Place all four filters in the vacuum oven for 1 hour at 60 C. Then weigh the filters. • 10. Draw 100 mL of Methanol through Filters C and D. Bring to 100 mL with Methanol. • 11. Dry, vacuum oven, and get an accurate weight on filters C and D.

[7] = Solubility of aminoflavone in Freon-22 / ethanol (BPN-06, BPN-07, BPN-08); assay type: physicochemical; settings: 40 °C, organic solvent or mixture, thermodynamic from solid
Procedure: Three supercritical, critical or near critical fluid solubility experiments were conducted on the aminoflavone prodrug (NSC 686288). The experiments were conducted with 100% (neat) Freon-22 at 3,000 psig (BPN-06), and 40° C., 90% Freon-22/10% ethanol at 3,000 psig and 40° C. (BPN-07) and 80% Freon-22/20% ethanol at 3,000 psig and 40° C. (BPN-08). These supercritical, critical or near critical fluid and conditions were selected on the basis of previous experience.
A 5.0 mL sample loop was utilized and each collection vial contained 5.0 ml of the same liquid as the sample loop rinse. Methanol was used as the collection fluid and sample rinse in BPN-06; ethanol was utilized as the collection fluid and sample rinse in BPN-07 and BPN-08. Samples were collected after circulation for 60, 75, 90, 105 and 120 minutes; the sample loop was then flushed of CO2 (except BPN-06). The fractions were then analyzed by HPLC. Each solubility data point is the average of 5 measurements.

[8] = HPLC analysis for degradation after supercritical fluid particle size reduction; assay type: physicochemical; settings: nitrogen 3,000 psig, 60 minutes, rapid depressurization
Procedure: Three nanoparticles experiments were conducted—two with surrogate compounds and one with aminoflavone prodrug (Sample 5). In general, the poorly water-soluble anticancer compound was first saturated with water by placement in the vapor generated by a 39° C. temperature water bath for 60 minutes. The water-saturated sample was then frozen in a −80° C. freezer for 60 minutes. The frozen particles were then placed in the chamber of the nanoparticles apparatus (FIG. 2) and contacted with nitrogen at 3,000 psig for 60 minutes to ensure maximum saturation of the hydrophobic anticancer compound by the SFS. The materials were then rapidly depressurized, discharging the chamber contents into a collection container. The experiments were conducted following Standard Operating Procedure SOP #APH-S0603 and Drawing #9706-001 Rev 2 in Appendix C.
Three samples in aluminum weigh boats with contents weight of 0.4 to 0.5 mg was provided. To obtain the assay solution, each boat was placed in a sonicator bath filled to a height of 3 mm with water. Ten milliliters of methanol was pipetted into the boat and the sonicator was turned on for 20 seconds. The yellow residue in the boat dissolved completely in less than 5 seconds. After sonication, the sample was drawn back into the 10 mL pipette and transferred to a 20 mL scintillation vial to await HPLC assay. […]

[9] = molar-equivalent basis; cited from earlier work

CC1=C(/C=C/C(C)=C/C=C/C(C)=C/C(=O)Nc2ccc(O)cc2)C(C)(C)CCC1 [Sample 2, Fenretinide (4HPR)]
S = mg/100 mL (preliminary solubility in methanol) [1]: >163 mg/100 mL | decomposition of old standard solution ([2]; methanol solution stored at room temperature on the laboratory bench): showed decomposition products

CCCCCCCCCCCCCCC[C@H](O)[C@@H](N)CO [Sample 3, Safingol]
S = mg/100 mL (preliminary solubility in methanol) [1]: >87 mg/100 mL

C=CCNC1=C2C[C@@H](C)C[C@H](OC)[C@H](O)[C@@H](C)/C=C(\C)[C@H](OC(N)=O)[C@@H](OC)/C=C\C=C(/C)C(=O)NC(=CC1=O)C2=O [Sample 4, 17-Allylamino Demethoxygeldanamycin (17-AAG)]
S = mg/100 mL (preliminary solubility in methanol) [1]: >220 mg/100 mL | decomposition of old standard solution ([2]; methanol solution exposed to room light and temperature for several weeks): only tiny decomposition peaks | Solubility (mg/100 mL) ([3]; Ethanol): 1478 mg/100 mL | Solubility (mg/100 mL) ([3]; Methanol): 4260 mg/100 mL | solubility at 5 min ([3]; Ethanol): 1480 µg/mL (≈ 2520 µM) | solubility at 5 min ([3]; Methanol): 4260 µg/mL (≈ 7270 µM)

Cc1c(F)c(N)c2c(=O)cc(-c3ccc(N)c(F)c3)oc2c1F [Sample 5, Aminoflavone]
S = mg/100 mL (preliminary solubility in methanol) [1]: 48 mg/100 mL | solubility ([1]; organic solvent or mixture, thermodynamic from solid, read-out: measured solubility in methanol): 480 µg/mL (≈ 1500 µM) | solubility at 5 min ([4]; 1% PVA in water, aqueous with cosolvent or surfactant or cyclodextrin, 1% PVA after centrifugation, average, read-out: average (actual) solubility): 0.22 µg/mL (≈ 0.687 µM) | solubility at 5 min ([4]; 1% PVA in water, aqueous with cosolvent or surfactant or cyclodextrin, 1% PVA after centrifugation, read-out: Solubility): 0.2 µg/mL (≈ 0.624 µM) | solubility at 5 min ([4]; 1% PVA in water, aqueous with cosolvent or surfactant or cyclodextrin, 1% PVA, after shaking, before centrifugation, read-out: Solubility): 14 µg/mL (≈ 43.7 µM) | solubility at 5 min ([4]; 1% PVA in water, aqueous with cosolvent or surfactant or cyclodextrin, 1% PVA, before centrifugation, average, read-out: average (apparent) solubility): 12.1 µg/mL (≈ 37.6 µM) | average (apparent) solubility ([4]; 1% PVA, before centrifugation, average): 12 µg/mL | average solubility ([4]; DI water after centrifugation, average): 0.31 µg/mL | solubility at 5 min ([4]; DI water, water, DI water after centrifugation, average, read-out: average solubility): 0.33 µg/mL (≈ 1.03 µM) | solubility at 5 min ([4]; DI water, water, DI water after centrifugation, read-out: Solubility): 0.34 µg/mL (≈ 1.06 µM) | solubility at 5 min ([4]; DI water, water, DI water, after shaking, before centrifugation, read-out: Solubility): 7.84 µg/mL (≈ 24.5 µM) | solubility at 5 min ([4]; DI water, water, DI water, before centrifugation, average, read-out: average solubility): 10.7 µg/mL (≈ 33.3 µM) | solubility in DMSO ([5]; DMSO): readily soluble | solubility ([5]; pH 4 and pH 7): 0.126 to 0.188 µg/mL | aqueous solubility ([5]; pH 10 (glycine buffer)): 0.65 µg/mL (≈ 2.03 µM) | solubility in 1% PVA [6]: essentially insoluble | solubility ([7]; BPN-06: Freon-22 100 vol %, ethanol 0 vol %, 3,000 psig and 40° C.): 65 µg/mL (≈ 203 µM) | solubility ([7]; BPN-07: Freon-22 90 vol %, ethanol 10 vol %, 3,000 psig and 40° C.): 108 µg/mL (≈ 337 µM) | solubility ([7]; BPN-08: Freon-22 80 vol %, ethanol 20 vol %, 3,000 psig and 40° C.): 116 µg/mL (≈ 362 µM) | product degradation of treated materials versus untreated controls (HPLC) [8]: did not indicate any product degradation | toxicity of intravenous treatments versus prodrug NSC 710464D [9]: less toxic | Solubility (mg/100 mL) ([3]; Ethanol): 240 mg/100 mL | Solubility (mg/100 mL) ([3]; Methanol): 280 mg/100 mL | solubility at 5 min ([3]; Ethanol): 240 µg/mL (≈ 749 µM) | solubility at 5 min ([3]; Methanol): 280 µg/mL (≈ 874 µM)
